The nature of data set [1]: In vitro permeation (Hanson Microette Franz Cell), flux across cellulose acetate membrane. Format: in vitro ADME. On the procedure: An in vitro permeation procedure for oxymetazoline cream was developed using the 0.01 and 0.10% w/w oxymetazoline cream. The in vitro experiments were conducted using Hanson Microette Franz Cell apparatus and 0.01N PBS (pH 7.4) as the receiving medium. Other critical parameters were evaluated such as the type of semi-synthetic membrane, sample timing (time dependent release-permeability profile), method sensitivity, specificity and linearity. Permeation characterization of oxymetazoline cream of different strengths (0.01% w/w, 0.05% w/w, 0.10% w/w and 0.15% w/w) was based on flux study across two different artificial membranes (cellulose acetate and polysulfone). The concentration of oxymetazoline which permeated through the membranes was measured using an HPLC assay.

A short description of data set [2]: In vitro permeation (Hanson Microette Franz Cell), flux across polysulfone membrane. Format: in vitro ADME. The method, then:
An in vitro permeation procedure for oxymetazoline cream was developed using the 0.01 and 0.10% w/w oxymetazoline cream. The in vitro experiments were conducted using Hanson Microette Franz Cell apparatus and 0.01N PBS (pH 7.4) as the receiving medium. Other critical parameters were evaluated such as the type of semi-synthetic membrane, sample timing (time dependent release-permeability profile), method sensitivity, specificity and linearity.
Permeation characterization of oxymetazoline cream of different strengths (0.01% w/w, 0.05% w/w, 0.10% w/w and 0.15% w/w) was based on flux study across two different artificial membranes (cellulose acetate and polysulfone). The concentration of oxymetazoline which permeated through the membranes was measured using an HPLC assay.

Where [3] appears, read: concentration range 0.01-0.10% w/w.
Setting [4] is: creams 0.01-0.15% w/w, dump and die profile.

With `Cc1cc(C(C)(C)C)c(O)c(C)c1CC1=NCCN1` [oxymetazoline, 3-(4,5-dihydro-1H-imidazol-2-ylmethyl)-2,4-dimethyl-6-tert-butyl-phenol], the “concentration level above which in vitro membrane transport reached saturation” value in data set [1] and in data set [2] was more than 0.1 % w/w each time. Besides, the “Oxymetazoline permeability (AUC0-24h) as a function of concentration” value in data set [1] (setting [3]) and in data set [2] (setting [3]) was “linearly increased” in each case. Also, the “time of peak of oxymetazoline permeation rate after cream application” value in data set [1] (setting [4]) and in data set [2] (setting [4]) was 0.5 h each time.
